According to BindingDB's records for doi:10.1021/acs.jnatprod.5b00062 (Albert-Ludwigs-University of Freiburg, 2015):

Experiments:
[1] = biological target: Sodium/potassium-transporting ATPase subunit alpha-1 (Rattus norvegicus, UniProt P06685); assay: Inhibition of Wistar rat kidney Na+,K+-ATPase alpha1 after 2 hrs
[2] = biological target: Sarcoplasmic/endoplasmic reticulum calcium ATPase 1 (Rattus norvegicus, UniProt Q64578); assay: Inhibition of Wistar rat EDL muscle SERCA1a after 1 hr
Chain of Sarcoplasmic/endoplasmic reticulum calcium ATPase 1 (Q64578 whole entry): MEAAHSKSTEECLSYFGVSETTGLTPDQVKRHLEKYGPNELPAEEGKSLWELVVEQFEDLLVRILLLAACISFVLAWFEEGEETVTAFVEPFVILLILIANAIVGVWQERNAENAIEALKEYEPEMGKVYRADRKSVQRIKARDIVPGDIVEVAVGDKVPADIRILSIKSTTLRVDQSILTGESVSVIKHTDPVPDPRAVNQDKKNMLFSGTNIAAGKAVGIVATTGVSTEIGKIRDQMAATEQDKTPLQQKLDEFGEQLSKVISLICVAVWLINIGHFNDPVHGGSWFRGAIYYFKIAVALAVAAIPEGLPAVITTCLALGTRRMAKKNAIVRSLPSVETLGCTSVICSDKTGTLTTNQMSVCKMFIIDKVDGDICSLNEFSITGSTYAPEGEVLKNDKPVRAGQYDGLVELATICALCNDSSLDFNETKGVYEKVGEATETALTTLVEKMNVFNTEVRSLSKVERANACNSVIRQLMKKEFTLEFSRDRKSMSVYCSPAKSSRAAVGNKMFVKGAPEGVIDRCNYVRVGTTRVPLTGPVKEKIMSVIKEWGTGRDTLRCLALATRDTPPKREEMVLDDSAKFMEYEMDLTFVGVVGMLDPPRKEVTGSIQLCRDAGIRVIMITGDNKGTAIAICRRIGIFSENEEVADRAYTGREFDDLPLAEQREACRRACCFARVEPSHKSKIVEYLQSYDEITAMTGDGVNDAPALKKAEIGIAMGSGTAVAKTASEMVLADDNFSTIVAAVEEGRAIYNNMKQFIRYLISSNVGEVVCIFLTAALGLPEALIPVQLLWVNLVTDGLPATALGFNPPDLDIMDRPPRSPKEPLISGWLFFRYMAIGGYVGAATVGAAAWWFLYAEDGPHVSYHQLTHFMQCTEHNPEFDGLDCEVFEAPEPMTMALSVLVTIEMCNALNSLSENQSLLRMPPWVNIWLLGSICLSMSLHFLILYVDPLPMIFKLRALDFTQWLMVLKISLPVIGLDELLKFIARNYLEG

CC[C@H](C)[C@H]1O[C@]2(CC[C@@H]1C)C[C@@H]1C[C@@H](C/C=C(\C)[C@@H](O[C@H]3C[C@H](OC)[C@@H](O[C@H]4C[C@H](OC)[C@@H](O)[C@H](C)O4)[C@H](C)O3)[C@@H](C)/C=C/C=C3\CO[C@@H]4[C@H](O)C(C)=C[C@@H](C(=O)O1)[C@]34O)O2 [ABAMECTIN]
IC50 [1]: 8.23 µM
IC50 [2]: 16.9 µM
